From ChEMBL document CHEMBL3430912, “GSK Tres Cantos Anti-Kinetoplastid Screening (TCAKS) Data”

Legend:
Trypanosoma cruzi [1] = test: (§1) GSK_TCAKS: pIC50 H2C9 Imaging: H9c2 Host Cardiomyocytes. […] Cells were then washed once with PBS before infection. T. cruzi trypomastigotes, collected at days 5 to 8 after infection from LLC-MK2 parasite infected cultures, were allowed to swim out for 4h at 37C from a centrifuged pellet (2,500 rpm/10 min/room temperature). Trypomastigotes were then collected and counted in a CASY Cell Counter. Trypomastigotes, in supplemented DMEM, were added to H9c2 cultures in a multiplicity of infection of 1 and incubated for 18 h. Cells were washed once with PBS before incubation of the infected H9c2 monolayer with trypsin (Life-Technologies) to detach cells from the flask. Cells were counted in a CASY Cell Counter using a 150 um capillary and their density set at 5 * 10^4 cells per mL in supplemented assay DMEM. Infected H9c2 were dispensed into 384-well poly-lysine coated assay plates at 50uL per well using a Multidrop Combi dispenser. After seeding them, the plates were incubated at 37C, 5% CO2 for 72h. Cultures were then fixed and stained by addition of 50 uL of a solution containing 8% formaldehyde and 4 uM DRAQ5 DNA dye (BioStatus, UK) per well. […] Five images were collected per well for reliable statistical analysis. Automated image analysis was performed with a script developed on Acapella High Content Imaging and Analysis Software (PerkinElmer). Output: Number of H9c2 Host Cardiomyocytes nuclei to determine drug-related cytotoxicity.; type: functional, organism-based, Rattus norvegicus; details: H9c2, 4 h
Leishmania donovani [2] = test: GSK_TCAKS: pIC50 Leishmania donovani viability assay using fluorescence intensity. Assay plates (1536-well) were prepared by adding 30nL per well of compound. For single shot assay, the final compound concentration was 5uM. […] Briefly, eGFP LdBOB axenic amastigotes were harvested, fixed and counted in a CASY cell counter (Roche-Applied Science). A final concentration of 1.5 * 10^5 cells per well were prepared in amastigote media containing 500 U/mL penicillin/streptomycin (Invitrogen) and 6uL was dispensed to each experimental well using a Multidrop Combi dispenser (Thermo Scientific). 6uL of assay media was dispensed to control columns used as reference for 100% compound response. Following incubation for 72 h at 37C, 5% CO2, 2 uL of resazurin was added to each well at a final concentration of 0.5 mM in phosphate buffered saline (PBS) with IGEPAL (Sigma-Aldrich), 0.05% (v/v).; type: functional, organism-based
Trypanosoma cruzi [3] = test: GSK_TCAKS: pIC50 Trypanosoma cruzi viability assay using beta-GAL activity. This assay was run at single shot at 5uM compound concentration per well. The biological reagents consisted of NIH-3T3 host cells and trypomastigotes parasitic cells; both cell types were set to a 3.3 * 10^5 cells/mL dilution in assay DMEM by means of a CASY cell counter device using a 60um capillary. 6 uL of the mixture were dispensed per well (about 1 * 10^3 host-cells and 1 * 10^3 parasites) with a Multidrop Combi dispenser. […] In all wells, the percentage of DMSO never exceeded 0.5%. Plates incubated for four days at 37C, 5% CO2. The substrate used for the assay fluorescence intensity (FLINT) readout was resorufin-beta-D-galactopiranoside (Sigma-Aldrich) at 5uM per well. It was diluted in PBS supplemented with the soft detergent Igepal (Fluka).; type: functional, organism-based, Mus musculus; details: Tulahuen, NIH3T3
Trypanosoma cruzi [4] = test: as §1, with “Trypanosoma cruzi” for “H2C9”, “Infected Cells.” for “H9c2 Host Cardiomyocytes.”, “percentage” for “Number”, “infected cells per well as a second infection marker.” for “H9c2 Host Cardiomyocytes nuclei to determine drug-related cytotoxicity.”; type: functional, organism-based, Rattus norvegicus; details: H9c2, 4 h
Leishmania donovani [5] = test: (§2) GSK_TCAKS: pIC50 Leishmania donovani Imaging: Infected Macrophages. Assay plates (384-well) were prepared by adding 250nL of compound to each well. For single shot assay, the final compound concentration was 5 uM. […] Automated image analysis was performed with a script developed on Acapella High Content Imaging and Analysis Software (PerkinElmer). Output: Percent of infected macrophage cells were reported for each well.; type: functional, organism-based, Homo sapiens; details: THP-1
Leishmania donovani [6] = test: as §2, with “THP-1 Host” for “Infected”, “THP-1 cell count” for “Percent of infected macrophage cells”; type: functional, organism-based, Homo sapiens
[7] = tested on: Trypanosoma brucei brucei; test: GSK_TCAKS: pIC50 Trypanosoma brucei viability assay using luminiscence. Assay plates (1536-well) were prepared. T. brucei cultures were harvested and counted in a CASY cell counter. A parasite suspension was prepared at a final concentration of 5 * 10^4 cells/mL in complete HMI9 medium and 6uL was dispensed to all wells containing compounds using a Multidrop Combi dispenser. 6uL of HMI9 media with 0.4% DMSO were dispensed to control columns. Plates were incubated for 24 h at 37C, 5% CO2 then tempered for 10 min at room temperature. ATP content was quantified by adding 4 uL of CellTiter-Glo Reagent (Promega) according to the manufacturer's instructions. Luminescence was measured using a ViewLux.; type: functional, organism-based; details: Lister 427, CASY
Leishmania donovani [8] = test: as §2, with “Amastigotes/Macrophages.” for “Infected Macrophages.”, “Average number” for “Percent”, “amastigotes per” for “infected”, “cell” for “cells”; type: functional, organism-based, Homo sapiens; details: THP-1
[9] = GSK_TCAKS: pIC50 HepG2 human cell line viability assay using luminiscence. […] Seeding density was checked to ensure that new mono-layers were not more than 50% confluent at the time of harvesting. Cell suspension was added to 500 mL of the same medium at a final density of 1.2 * 10^5 cells/mL. This cell suspension was dispensed (25 uL, 3000 cells per well) into 384-well clear-bottom plates using a Multidrop Combi dispenser. Prior to addition of the cell suspension, the screening compounds (250 nL) were pre-dispensed into the plates with an Echo liquid handler. Plates were incubated for 48 h at 37C, 5% CO2. After incubation, plates equilibrated at room temperature for 30 min before proceeding to develop the luminescent signal. The signal developer, CellTiter-Glo Reagent, was allowed to equilibrate at room temperature for 30 min and added to the plates (25uL per well) using a Multidrop Combi dispenser. Plates were left for 10 min at room temperature for stabilization and then read using a ViewLux.; type: toxicity, cell-based
Trypanosoma cruzi [10] = test: as §1, with “Trypanosoma cruzi” for “H2C9”, “Amastigotes/Cell.” for “H9c2 Host Cardiomyocytes.”, “number” for “Number”, “amastigotes per cell as infection level measurement.” for “H9c2 Host Cardiomyocytes nuclei to determine drug-related cytotoxicity.”; type: functional, organism-based, Rattus norvegicus; details: H9c2, 4 h
[11] = tested on: Trypanosoma brucei brucei; test: GSK_TCAKS: pIC50 Trypanosoma brucei viability assay using fluorescence intensity. Assay plates (1536-well) were prepared by dispensing 25nL of compound solution per well using an Echo acoustic dispenser (Labcyte).; type: functional, organism-based; details: Lister 427, 2 h
[12] = molecular target: Sterol 14-alpha demethylase (Trypanosoma cruzi (strain CL Brener), UniProt Q7Z1V1); test: GSK_TCAKS: pIC50 CYP51 from Trypanosoma cruzi.; type: functional
Sterol 14-alpha demethylase, sequence (Q7Z1V1 whole entry): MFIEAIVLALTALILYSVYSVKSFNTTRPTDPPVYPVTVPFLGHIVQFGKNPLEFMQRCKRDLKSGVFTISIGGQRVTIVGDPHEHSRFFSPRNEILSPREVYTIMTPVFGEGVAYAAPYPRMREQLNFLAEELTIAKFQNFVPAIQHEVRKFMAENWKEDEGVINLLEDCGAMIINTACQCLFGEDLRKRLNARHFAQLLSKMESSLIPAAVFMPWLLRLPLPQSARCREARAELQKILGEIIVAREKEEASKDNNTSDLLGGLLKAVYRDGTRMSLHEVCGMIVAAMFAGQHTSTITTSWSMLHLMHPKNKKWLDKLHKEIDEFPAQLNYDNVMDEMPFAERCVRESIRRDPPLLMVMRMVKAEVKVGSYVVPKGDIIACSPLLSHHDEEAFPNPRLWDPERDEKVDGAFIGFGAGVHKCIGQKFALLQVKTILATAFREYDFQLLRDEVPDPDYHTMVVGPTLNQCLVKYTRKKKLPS

SMILES	IC50 (Trypanosoma cruzi [1]) [µM]	IC50 (Leishmania donovani [2]) [µM]	IC50 (Trypanosoma cruzi [3]) [µM]	IC50 (Trypanosoma cruzi [4]) [µM]	IC50 (Leishmania donovani [5]) [µM]	IC50 (Leishmania donovani [6]) [µM]	IC50 [7] [µM]	IC50 (Leishmania donovani [8]) [µM]	IC50 at 48 h [9] [µM]	IC50 (Trypanosoma cruzi [10]) [µM]	IC50 [11] [µM]	IC50 [12] [µM]
O=C(NCCc1csc(-c2ccc(F)cc2)n1)c1cccs1	> 50.1	> 50.1	0.398	0.398	> 50.1	> 50.1	0.2	20	> 100	0.251	0.251	25.1
O=C(NCCc1csc(-c2cccc(F)c2)n1)c1ccco1	10	> 50.1	1.58	1.58	> 50.1	> 50.1	0.631	> 50.1	> 100	1.26	0.501	> 100
O=C(Nc1ccccc1)Nc1nc(-c2ccccn2)cs1	1	1.58	0.631	1	0.398	6.31	1	0.251	25.1	0.631	1	31.6
O=C(Nc1nc(-c2ccccn2)cs1)C1CCc2ccccc2C1 (stereo unspecified)	3.98	5.01	2	2.51	0.631	7.94	3.16	0.398	39.8	2	3.16	25.1
COc1ccc(-c2cnc(NC(=O)c3ccc(F)cc3)n2C)cc1	> 50.1	3.16	2.51	5.01	1.26	> 50.1	3.16	0.501	> 100	2	1.26	10
O=C(O)[C@H]1C[C@@H]1c1ccc(-c2ccc(CN(CCc3ccccn3)C(=O)C3CCC3)cc2)cc1	> 50.1	25.1	> 50.1	31.6	> 50.1	> 50.1	0.794	> 50.1	> 100	31.6	0.631	20
CN(C)CCN(C)Cc1ccc(Cl)cc1NS(=O)(=O)c1ccc(Cl)c(Cl)c1	5.01	5.01	1.12	2	6.31	31.6	3.98	3.98	31.6	2	7.94	31.6
O=C(Nc1nc2ccccc2[nH]1)c1c(O)c2cccc3c2n(c1=O)CC3	10	2.51	20	15.8	2	> 50.1	20	1	10	25.1	15.8	> 100
N#Cc1ccc(C(=O)Nc2cccc(-c3cccc(CN4CCC(O)CC4)c3)c2)cc1	31.6	> 50.1	5.01	7.94	15.8	15.8	0.794	7.94	39.8	7.94	0.794	25.1
O=C(Nc1nc(-c2ccccn2)cs1)N1C[C@H]2C[C@@]2(c2ccccc2)C1	0.794	2	0.501	0.501	0.501	7.94	0.631	0.398	25.1	0.251	0.501	39.8
CN(C)S(=O)(=O)c1cccc(C(=O)Nc2nc(-c3ccccn3)cs2)c1	7.94	1.26	1.26	1.58	6.31	7.94	0.631	2.51	> 100	1	0.501	31.6
O=C(CCCNC(=O)c1ccc(Cl)cc1)Nc1nc(-c2ccccn2)cs1	25.1	> 50.1	6.31	25.1	5.01	> 50.1	12.6	3.16	> 100	10	7.94	3.16
CCCNC(=O)Nc1cccc(-c2nc3ncccc3o2)c1	25.1	3.16	2.82	3.98	12.6	20	1	15.8	> 100	3.16	0.501	> 100
CN(C)c1ccc(N)cc1CN(CC1CCCO1)S(C)(=O)=O (stereo unspecified)	> 50.1	3.98	> 50.1	> 50.1	12.6	> 50.1	> 39.8	10	> 100	> 50.1	> 39.8	> 100
COc1ccc(C2CC(c3ccccc3Cl)=NN2C(=O)CNC(=O)C2CCCC2)cc1 (stereo unspecified)	> 50.1	> 50.1	3.55	3.16	> 50.1	> 50.1	0.794	> 50.1	> 100	2	0.631	63.1
Cc1nc2c(-c3cccs3)c(C)nn2c(NCCO)c1C	> 50.1	> 50.1	39.8	31.6	> 50.1	> 50.1	0.2	> 50.1	> 100	15.8	0.126	> 100
O=C(Nc1ccc(C(F)(F)F)cc1)NC1(C(=O)NCc2ccco2)CCCCC1	> 50.1	39.8	7.94	> 50.1	> 50.1	31.6	1	> 50.1	> 100	> 50.1	0.794	> 31.6
CCN(CC)c1nc(Nc2ccncc2)nc2ccccc12	7.94	0.794	0.126	0.0794	6.31	25.1	5.01	2	50.1	0.00501	2.51	> 100
